Data reported in PubChem BioAssay (NCI).
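48-hour exposure; five concentrations; linearly interpolated endpoints. Abbreviation: GI50, concentration required for 50% inhibition of growth. Definition used: TGI = concentration required for complete inhibition of growth.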

Assays:
Test in all cases: NCI anticancer screen, dose series, 48 h
786-0 renal = system: 786-0 renal
HS 578T breast = system: HS 578T breast
NCI-H23 lung = system: NCI-H23 lung
NCI-H460 lung = system: NCI-H460 lung
OVCAR-3 ovarian = system: OVCAR-3 ovarian
RPMI-8226 leukemia = system: RPMI-8226 leukemia
SF-295 CNS = system: SF-295 CNS
SNB-19 CNS = system: SNB-19 CNS
SR leukemia = system: SR leukemia
T-47D breast = system: T-47D breast

SMILES	TGI (786-0 renal)	TGI (HS 578T breast)	TGI (NCI-H23 lung)	TGI (NCI-H460 lung)	TGI (OVCAR-3 ovarian)	TGI (RPMI-8226 leukemia)	TGI (SF-295 CNS)	TGI (SNB-19 CNS)	TGI (SR leukemia)	TGI (T-47D breast)	GI50 (786-0 renal)	GI50 (HS 578T breast)	GI50 (NCI-H23 lung)	GI50 (NCI-H460 lung)	GI50 (OVCAR-3 ovarian)	GI50 (RPMI-8226 leukemia)	GI50 (SF-295 CNS)	GI50 (SNB-19 CNS)	GI50 (SR leukemia)	GI50 (T-47D breast)
O=C(O)c1ccc(C(=O)O)c(C(=O)Nc2ccc3c(c2)C(=O)c2ccccc2-3)c1	> 100 µM	> 100 µM	> 100 µM	> 100 µM	> 100 µM	> 100 µM	> 100 µM	> 100 µM	> 100 µM	> 100 µM										
COc1ccc(Nc2cc(C)nc(NCCCNc3ccnc4cc(Cl)ccc34)n2)cc1	3.26 µM	4.39 µM	5.78 µM	3.8 µM	3.12 µM	5 µM	2.73 µM	13.4 µM	3.62 µM	3.69 µM	1.67 µM	1.8 µM	2.27 µM	1.78 µM	1.65 µM	1.81 µM	1.34 µM	3.48 µM	0.778 µM	1.68 µM
COc1cc(C(=O)N/N=C/c2ccc(N(C)C)cc2)cc(OC)c1OC	> 100 µM	> 100 µM	> 100 µM	31.7 µM	0.605 µM			> 100 µM		> 100 µM	0.66 µM	0.546 µM	0.588 µM	0.376 µM	0.259 µM	0.344 µM	0.288 µM	10.6 µM	0.287 µM	> 100 µM
O=C1c2cccc(NCCN=Cc3ccccc3O)c2C(=O)c2c(NCCN=Cc3ccccc3O)cccc21	3.76 µM	3.98 µM	3.2 µM	1.52 µM	2.09 µM	4.29 µM	1.88 µM	3.54 µM		4.46 µM	0.865 µM	0.838 µM	1.01 µM	0.399 µM	0.514 µM	0.878 µM	0.409 µM	0.776 µM	0.363 µM	0.684 µM
N#C[Se]CCCNS(=O)(=O)C1CC2C=CC1C2 (stereo not given)	2.33 µM	1.87 µM	4.63 µM	1.27 µM	3.1 µM	5.55 µM	2.43 µM	2.91 µM	> 100 µM	8.28 µM	0.997 µM	0.409 µM	1.16 µM	0.316 µM	1.47 µM	2.17 µM	1.01 µM	1.05 µM	0.57 µM	2.55 µM
Cc1cc(N(CCCl)CCCl)ccc1C=Nc1ccc2ccccc2c1	> 100 µM	> 100 µM	> 100 µM	> 100 µM	> 77 µM	> 100 µM	> 55.8 µM	> 100 µM	> 100 µM	> 100 µM	12.7 µM	34.3 µM	6.12 µM	0.485 µM	14.8 µM	29.3 µM	2.08 µM	51.2 µM	4.08 µM	3.32 µM
COc1cc(-c2c(C#N)c(N)nc(N3CCOCC3)c2C#N)cc(OC)c1OC	> 100 µM	> 100 µM		> 100 µM	> 100 µM	> 100 µM	> 100 µM	> 100 µM	40.2 µM	> 100 µM	> 100 µM	94 µM		> 100 µM	68.8 µM	> 100 µM	> 100 µM	89.9 µM	13.4 µM	15.1 µM
O=C1OCC2=C1C(c1ccc(Cl)c(Cl)c1)c1cc3c(cc1N2CCO)CCC3 (stereo not given)	10.2 µM	14.3 µM	12.2 µM	6.03 µM	0.509 µM	15.1 µM	1.5 µM	15.2 µM	16.2 µM	20.6 µM	0.242 µM	0.232 µM	0.239 µM	0.186 µM	0.145 µM	0.237 µM	0.108 µM	0.324 µM	0.348 µM	0.25 µM
CC(C)(C)CC(N)=O	> 100 µM	> 100 µM	> 100 µM	> 100 µM	> 100 µM		> 100 µM	> 100 µM	> 100 µM	> 100 µM										
O=C(Nc1ccccc1)c1cc(S(=O)(=O)Nc2nc3ccccc3o2)c(SCc2ccccc2)cc1Cl	38.2 µM	44.3 µM	44.9 µM	77 µM	40 µM	46.8 µM	33 µM	> 100 µM		91.3 µM	17.3 µM	14.5 µM	21.2 µM	20.8 µM	19.9 µM	15.4 µM	18.5 µM	37 µM		22.5 µM
CCCCCCCCn1ccc2cc(NC(=O)Cn3cc(CN4CCCCC4)nn3)ccc21	3.44 µM	4.84 µM	6.34 µM	3.67 µM	13.3 µM		3.65 µM	3.65 µM	> 100 µM	4.31 µM	1.8 µM	1.96 µM	2.35 µM	1.89 µM	3.42 µM		1.81 µM	1.82 µM	1.67 µM	1.99 µM
COc1cc([C@@H]2C[C@H]2c2cc(SC)n[nH]2)cc(OC)c1OC	44.6 µM	45.2 µM	58 µM	41.7 µM	30.5 µM	37.2 µM	28.5 µM	> 100 µM		> 100 µM	18 µM	15.1 µM	21.1 µM	17.7 µM	13.2 µM	12.6 µM	10.9 µM	35 µM		16.5 µM
COc1ccc(-n2ccnc2-c2cc(OC)c(OC)c(OC)c2)cc1	> 100 µM	8.29 µM	65 µM	> 100 µM	5.03 µM	30.7 µM	8.35 µM	> 100 µM		> 100 µM	5.65 µM	2.08 µM	3.3 µM	2.37 µM	1.58 µM	3.78 µM	1.99 µM	4.64 µM		8.48 µM
